What all share (assay): DTP human tumour cell line panel, 48 h
The subject of assay [1] is OVCAR-3.
Assay [2] has as its system NCI-H226.
Assay [3] relates to KM12.
Assay [4] deals with UACC-62.
Assay [5] has as its system NCI-H522.
Assay [6] relates to MCF7.
Assay [7] has as its system CAKI-1.
Assay [8] deals with SF-268.
The test system of assay [9] is NCI-H23.
Assay [10] has as its system SN12C.
The test system of assay [11] is HL-60.
Assay [12] has as its system SF-539.
The subject of assay [13] is EKVX.
Assay [14] relates to UO-31.
For assay [15], the system named is HOP-62.
The test system of assay [16] is HCT-15.
For assay [17], the system named is PC-3.
The test system of assay [18] is SK-MEL-5.
Assay [19] relates to HCT-116.
Assay [20] has as its system NCI-H460.

We go through two compounds from ChEMBL document CHEMBL1201862, “PubChem BioAssay data set” (2004).

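Five compound concentrations were applied to cells in 96-well plates for 48 hours; endpoints were derived by simple linear interpolation of the resulting dose-response curve. The concentration for 50% growth inhibition is given as GI50.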 The source made the active and inactive calls. Rule as the data show it: active = GI50 up to about 1.1 µM and inactive = higher.

With `S=CN1CCCCC1`, the GI50 in assay [1], in assay [2], in [3], in assay [4], in assay [5] and in assay [6] was > 100 µM (inactive) throughout. The GI50 in assay [7], in assay [8], in assay [9], in [10], in assay [11] and in [12] was > 100 µM (inactive) in each case. Also, the GI50 in [13] is > 100 µM (inactive); in assay [14] it was > 100 µM (inactive); in assay [15], > 100 µM (inactive); in assay [16], over 100 µM; in assay [17], > 100 µM (inactive); in assay [18] it was > 100 µM (inactive). Moreover, the GI50 in assay [19] and in assay [20] was > 100 µM (inactive) each time.

As for `CC1(C)C(N2CCOCC2)CS1(=O)=O` (stereo not given), the GI50 in assay [1], in [2], in assay [3], in assay [4], in [5] and in [6] was > 10 µM (inactive) in each case. Also, the GI50 in assay [7], in [8], in assay [9], in [10], in assay [11] and in assay [12] was > 10 µM (inactive) in each case. Further, the GI50 in assay [13] was > 10 µM (inactive); in assay [14] it was > 10 µM (inactive); in assay [15], > 10 µM (inactive); in [16], over 10 µM; in assay [17], > 10 µM (inactive); in assay [18], > 10 µM (inactive). Further, the GI50 in [19] and in assay [20] was > 10 µM (inactive) throughout.
